Like-named read-outs stand apart in the source and are kept apart here. Marks after values point to notes of the source that are not given here.
Key:
[1] = tested on: gouty arthritis rats (sodium urate, right ankle and knee joint cavities); experiment: Pharmacodynamics experiment B on gouty arthritis rats: gait score; assay type: in vivo, SD rats; conditions: for Gait Score: dose 0.6 mg/kg gavage, mean; for Gait versus model group, in words: compounds 0.6 mg/kg, colchicine 0.6 and 1.2 mg/kg
How it was run: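 Male SD rats (180-220 g) received test compounds by gavage as 0.5% CMC-Na suspensions, once daily for 7 days before modeling and for 3 days afterward. Gouty arthritis was induced by injecting 0.2 mL sodium urate solution into the right ankle and knee joint cavities. Gait was graded 0-3 using modified Coderre criteria, and group mean scores were compared with the model group by ANOVA-Dunnett T-test (P<0.05).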

IL-1β = experiment: Inflammatory factor experiment B: IL-1β in knee synovial tissue (ELISA); assay type: in vivo, SD rats; conditions: Rattus norvegicus, po; synovial tissue of knee joints, 48 h after modeling; dose 0.6 mg/kg; read-out: IL-1β percentage decrease %
[2] = tested on: gouty arthritis rats (sodium urate, right ankle and knee joint cavities); experiment: Pharmacodynamics experiment B on gouty arthritis rats: ankle swelling rate; assay type: in vivo, SD rats; conditions: Rattus norvegicus, po, dose 0.6 mg/kg gavage, read-out: Swelling rate (ankle)
How it was run: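 Male SD rats dosed by gavage at 0.6 mg/kg (0.5% CMC-Na suspension) daily for 7 days before and 3 days after injection of 0.2 mL sodium urate solution into right ankle and knee joints. Ankle circumference measured before and 2-48 h after modeling; swelling rate = swelling degree/baseline ×100%, mean values.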

IL-6 = experiment: Inflammatory factor experiment B: IL-6 in knee synovial tissue (ELISA); assay type: in vivo, SD rats; conditions: Rattus norvegicus, po; synovial tissue of knee joints, 48 h after modeling; dose 0.6 mg/kg; read-out: IL-6 percentage decrease %
TNF-α = experiment: Inflammatory factor experiment B: TNF-α in knee synovial tissue (ELISA); assay type: in vivo, SD rats; conditions: Rattus norvegicus, po; synovial tissue of knee joints, 48 h after modeling; dose 0.6 mg/kg; read-out: TNF-α percentage decrease %
ICR mice = experiment: Acute toxicity test in mice by single administration; assay type: in vivo; conditions: 14 days, deaths/animals
Experimental: (§1) Compounds 34, 48, 55 and 58 were ground with 0.5% CMC-Na before administration, and prepared into a suspension of the corresponding concentration for gavage, with an administration volume of 0.1 mL/10 g.
(§2) ICR mice, SPF grade, weighing 18-20 g, 6-8 weeks old, were provided by Nantong University. The Laboratory Animal Production License was SCXK (Su) 2016-0010 and Laboratory Animal Use License was SYXK (Su) 2017-0035.
(§3) After overnight fasting, the drug was administered once by gavage in a volume of 0.1 mL/10 g. The normal group was given the corresponding volume of 0.5% CMC-Na solution according to body weight. The state of the animal was observed after administration, the animals were weighed daily and the number of deaths was recorded for 14 consecutive days.

[3] = as above; assay type: in vivo, ICR mice; conditions: both sexes, ICR, mouse, in vivo, po; acute toxicity, mice, single gavage; read-out: Maximum tolerated dose (MTD)
Experimental: as §1, §2, §3

[4] = In vivo pharmacokinetics in SD rats; conditions: Sprague-Dawley, rat; for F / AUC(0-inf) / MRT inf / Vd / clearance / Cmax / Tmax: in vivo; for half-life: plasma, read-out: t1/2 (converted)
Experimental: Compound stock solution preparation: an appropriate amount of solid powder of the compounds were weighed separately, a certain amount of DMSO was added and 20 mg/mL of stock solution was obtained under vortex ultrasound.
Preparation of test compound for gavage: an appropriate amount of compound stock solution was taken by pipette, a certain amount of Solutol HS15 solution was added, the mixture was vortexed for 1 minute, then a certain amount of saline was added, and 1 mg/mL of solution was obtained after mixing well.
Preparation of test compounds for intravenous injection: an appropriate amount of compound stock solution was taken by pipette separately, a certain amount of Solutol HS15 solution was added, the mixture was vortexed for 1 minute, then a certain amount of physiological saline was added and a solution of 0.5 mg/mL was obtained after mixing well.
The animals were fasted overnight before administration by gavage, and food was given 4 hours after administration, during which they were free to drink. Two groups were set for each test compound, intravenous injection group and oral administration group, and the dose and mode of administration were shown in Table 12 below.
The blood samples were centrifuged at 4° C. for 5 min at 2,000 g to separate the plasma. The plasma samples were analyzed by LC/MS/MS to detect the concentration of each test compound in the plasma samples.
The parameters related to the […] were obtained by calculations with WinNonlin® Professional software.

[5] = Intravenous injection - 1 mg/kg

SMILES | Gait Score ([1]; 2 h) | inhibition in vivo at 0.6 mg/kg (IL-1β) | inhibition in vivo at 0.6 mg/kg (IL-6) | inhibition in vivo at 0.6 mg/kg (TNF-α) | Mortality rate (ICR mice; single gavage dose 50 mg/kg) | Mortality rate (ICR mice; single gavage dose 100 mg/kg) | Mortality rate (ICR mice; single gavage dose 400 mg/kg) | Mortality rate (ICR mice; single gavage dose 600 mg/kg) | MTD at 14 days [3] | F ([4]; 10 mg/kg) | AUC(0-inf) ([4]; iv, 1 mg/kg) | MRT inf ([4]; iv, 1 mg/kg) | Vd ([4]; iv, 1 mg/kg) | clearance ([4]; iv, 1 mg/kg) | AUC(0-inf) ([4]; po, 10 mg/kg) | Cmax ([4]; po, 10 mg/kg) | MRT inf ([4]; po, 10 mg/kg) | Tmax ([4]; po, 10 mg/kg) | half-life ([4]; po, Gavage - 10 mg/kg) | half-life [4, 5] | other results
CNC(=O)c1ccc2c(cc1=O)[C@@H](NC(C)=O)CCc1cc(OC)c(OC)c(OC)c1-2 [Compound 48, (S)-7-acetamido-1,2,3-trimethoxy-N-methyl-9-oxo-5,6,7,9-tetrahydrobenzo[a]heptalene-10-carboxamide] | 0 | 82.2% | 110% | 81.6% | 0/6 | 0/6 | 0/6 | 0/6 | > 600 mg/kg | 57.0% | 0.58 µg·h/mL | 0.641 h | 1.11 L/kg | 1.75 L/h/kg | 3.31 µg·h/mL | 1.93 µg/mL | 1.83 h | 0.25 h | 1.61 h | 0.536 h | Gait Score ([1]; 4 h): 0.1; Gait Score ([1]; 8 h): 0.1**; Gait Score ([1]; 10 h): 0**; Gait Score ([1]; 24 h): 0*; Gait Score ([1]; 48 h): 0; Gait versus model group, in words [1]: significant improvement in gait occurred at different time points; change in vivo at 0.6 mg/kg ([2]; 2 h): 9.42%; change in vivo at 0.6 mg/kg ([2]; 4 h): 15.5%; change in vivo at 0.6 mg/kg ([2]; 8 h): 21%; change in vivo at 0.6 mg/kg ([2]; 10 h): 21.5%; change in vivo at 0.6 mg/kg ([2]; 24 h): 22.4%; change in vivo at 0.6 mg/kg ([2]; 48 h): 13.6%
CCNC(=O)c1ccc2c(cc1=O)[C@@H](NC(C)=O)CCc1cc(OC)c(OC)c(OC)c1-2 [Compound 55, (S)-7-acetamido-1,2,3-trimethoxy-N-ethyl-9-oxo-5,6,7,9-tetrahydrobenzo[a]heptalen-10-carboxamide] |  | 133% | 128% | 86.4% | 0/6 | 0/6 | 0/6 | 0/6 | > 600 mg/kg | 115% | 0.543 µg·h/mL | 0.592 h | 1.1 L/kg | 1.87 L/h/kg | 6.26 µg·h/mL | 2.04 µg/mL | 2.72 h | 0.333 h | 2.02 h | 0.6 h | 
COc1cc2c(c(OC)c1OC)-c1ccc(C(=O)Nc3ccccc3)c(=O)cc1[C@@H](NC(C)=O)CC2 [Compound 58, (S)-7-acetamido-1,2,3-trimethoxy-N-phenyl-9-oxo-5,6,7,9-tetrahydrobenzo[a]heptalen-10-carboxamide] | 0 | 87.5% | 86.7% | 80.5% | 0/6 | 0/6 | 0/6 | 0/6 | > 600 mg/kg | 109% | 1.39 µg·h/mL | 2.04 h | 1.44 L/kg | 0.728 L/h/kg | 15.1 µg·h/mL | 2.04 µg/mL | 4.58 h | 2.67 h | 2.22 h | 1.92 h | Gait Score ([1]; 4 h): 0*; Gait Score ([1]; 8 h): 0.3; Gait Score ([1]; 10 h): 0.2**; Gait Score ([1]; 24 h): 0; Gait Score ([1]; 48 h): 0; Gait versus model group, in words [1]: significant improvement in gait occurred at different time points; change in vivo at 0.6 mg/kg ([2]; 2 h): 6.48%; change in vivo at 0.6 mg/kg ([2]; 4 h): 13.8%; change in vivo at 0.6 mg/kg ([2]; 8 h): 17.2%; change in vivo at 0.6 mg/kg ([2]; 10 h): 20.4%; change in vivo at 0.6 mg/kg ([2]; 24 h): 18.1%; change in vivo at 0.6 mg/kg ([2]; 48 h): 8.42%

Source: patent US20250129012A1, “ANTI-INFLAMMATORY AND ANALGESIC COMPOUNDS AND USE THEREOF” (JIANGSU ATOM BIOSCIENCE AND PHARMACEUTICAL CO., LTD., priority 2021, published 2025)
